# Source: patent US7893074B2, “2, 4-pyrimidinediamines useful in the treatment of neoplastic diseases, inflammatory and immune system disorders” (Novartis AG, priority 2003, dated 2011)
# Like-named read-outs stand apart in the source and are kept apart here.
# Experiments:
# T Cell = T Cell Migration; assay type: cell-based
# [1] = system: Mouse mammary carcinoma 4T1 cells; test: Anchorage-independent tumor cell growth assay; assay type: cell-based
# Description: Cells are cultured for 2 h and inhibitors are added at various concentrations in a final concentration of 0.1% DMSO. After 48 h, cell growth is assayed with the cell counting kit-8 (Wako Pure Chemical), which uses a water soluble tetrazolium salt WST8. Twenty μL of the reagent is added into each well and cells are further cultured for 2 h. The optical density is measured at 450 nm.
# [2] = biological target: Focal Adhesion Kinase (FAK) (Homo sapiens, UniProt Q05397); test: FAK assay system (Focal Adhesion Kinase inhibition); assay type: biochemical
# FAK = FAK (Mus musculus, UniProt P34152); test: Phos IC50 (phosphorylation); assay type: cell-based
# IGF-IR = IGF-IR (Homo sapiens, UniProt P08069); test: Cellular Capture ELISA of IGF-I induced autophosphorylation of the IGF-IR; assay type: cell-based; details: read-out: IGF-1R IC50
# Description: In this assay the activity of the compounds of the invention against Insulin-like growth factor I (IGF-I) induced autophosphorylation of the IGF-IR is determined.
# Chain of FAK (P34152 2-1052): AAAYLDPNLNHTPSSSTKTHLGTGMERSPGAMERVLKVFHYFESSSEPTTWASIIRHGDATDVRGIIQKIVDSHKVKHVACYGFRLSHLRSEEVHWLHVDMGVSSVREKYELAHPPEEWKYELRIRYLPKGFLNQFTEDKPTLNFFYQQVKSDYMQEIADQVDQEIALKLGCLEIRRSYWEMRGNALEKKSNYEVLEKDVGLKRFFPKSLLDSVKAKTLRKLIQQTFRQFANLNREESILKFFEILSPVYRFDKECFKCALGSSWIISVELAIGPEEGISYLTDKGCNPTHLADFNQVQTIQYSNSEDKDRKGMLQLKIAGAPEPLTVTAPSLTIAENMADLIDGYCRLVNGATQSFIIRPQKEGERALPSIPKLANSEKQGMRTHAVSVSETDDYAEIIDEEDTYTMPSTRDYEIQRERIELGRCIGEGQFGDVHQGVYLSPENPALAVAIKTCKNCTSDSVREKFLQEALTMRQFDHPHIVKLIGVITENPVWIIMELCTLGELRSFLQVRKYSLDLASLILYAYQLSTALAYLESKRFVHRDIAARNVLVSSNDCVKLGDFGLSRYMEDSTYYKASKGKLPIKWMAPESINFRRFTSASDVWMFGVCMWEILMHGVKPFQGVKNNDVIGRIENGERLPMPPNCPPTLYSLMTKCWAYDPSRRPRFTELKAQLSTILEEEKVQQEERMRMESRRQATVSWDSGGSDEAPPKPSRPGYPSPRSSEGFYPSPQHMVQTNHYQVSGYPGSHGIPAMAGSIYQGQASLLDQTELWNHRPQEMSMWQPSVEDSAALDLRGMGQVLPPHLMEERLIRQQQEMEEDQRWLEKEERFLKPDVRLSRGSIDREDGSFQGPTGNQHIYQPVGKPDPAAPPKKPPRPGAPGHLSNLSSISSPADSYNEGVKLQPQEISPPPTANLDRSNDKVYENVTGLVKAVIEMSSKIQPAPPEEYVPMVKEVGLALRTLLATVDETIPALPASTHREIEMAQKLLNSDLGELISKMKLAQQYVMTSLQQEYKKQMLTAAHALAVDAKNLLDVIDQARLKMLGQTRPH
# Chain of Focal Adhesion Kinase (FAK) (Q05397 384-706): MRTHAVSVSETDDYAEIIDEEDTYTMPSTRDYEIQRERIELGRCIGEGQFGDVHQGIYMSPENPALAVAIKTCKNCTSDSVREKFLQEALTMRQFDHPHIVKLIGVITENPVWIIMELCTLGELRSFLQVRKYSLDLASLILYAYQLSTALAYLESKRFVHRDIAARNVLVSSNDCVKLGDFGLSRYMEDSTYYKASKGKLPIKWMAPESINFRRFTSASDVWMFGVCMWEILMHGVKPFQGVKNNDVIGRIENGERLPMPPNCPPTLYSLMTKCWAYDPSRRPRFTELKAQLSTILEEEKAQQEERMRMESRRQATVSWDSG
# Chain of IGF-IR (P08069 31-1367): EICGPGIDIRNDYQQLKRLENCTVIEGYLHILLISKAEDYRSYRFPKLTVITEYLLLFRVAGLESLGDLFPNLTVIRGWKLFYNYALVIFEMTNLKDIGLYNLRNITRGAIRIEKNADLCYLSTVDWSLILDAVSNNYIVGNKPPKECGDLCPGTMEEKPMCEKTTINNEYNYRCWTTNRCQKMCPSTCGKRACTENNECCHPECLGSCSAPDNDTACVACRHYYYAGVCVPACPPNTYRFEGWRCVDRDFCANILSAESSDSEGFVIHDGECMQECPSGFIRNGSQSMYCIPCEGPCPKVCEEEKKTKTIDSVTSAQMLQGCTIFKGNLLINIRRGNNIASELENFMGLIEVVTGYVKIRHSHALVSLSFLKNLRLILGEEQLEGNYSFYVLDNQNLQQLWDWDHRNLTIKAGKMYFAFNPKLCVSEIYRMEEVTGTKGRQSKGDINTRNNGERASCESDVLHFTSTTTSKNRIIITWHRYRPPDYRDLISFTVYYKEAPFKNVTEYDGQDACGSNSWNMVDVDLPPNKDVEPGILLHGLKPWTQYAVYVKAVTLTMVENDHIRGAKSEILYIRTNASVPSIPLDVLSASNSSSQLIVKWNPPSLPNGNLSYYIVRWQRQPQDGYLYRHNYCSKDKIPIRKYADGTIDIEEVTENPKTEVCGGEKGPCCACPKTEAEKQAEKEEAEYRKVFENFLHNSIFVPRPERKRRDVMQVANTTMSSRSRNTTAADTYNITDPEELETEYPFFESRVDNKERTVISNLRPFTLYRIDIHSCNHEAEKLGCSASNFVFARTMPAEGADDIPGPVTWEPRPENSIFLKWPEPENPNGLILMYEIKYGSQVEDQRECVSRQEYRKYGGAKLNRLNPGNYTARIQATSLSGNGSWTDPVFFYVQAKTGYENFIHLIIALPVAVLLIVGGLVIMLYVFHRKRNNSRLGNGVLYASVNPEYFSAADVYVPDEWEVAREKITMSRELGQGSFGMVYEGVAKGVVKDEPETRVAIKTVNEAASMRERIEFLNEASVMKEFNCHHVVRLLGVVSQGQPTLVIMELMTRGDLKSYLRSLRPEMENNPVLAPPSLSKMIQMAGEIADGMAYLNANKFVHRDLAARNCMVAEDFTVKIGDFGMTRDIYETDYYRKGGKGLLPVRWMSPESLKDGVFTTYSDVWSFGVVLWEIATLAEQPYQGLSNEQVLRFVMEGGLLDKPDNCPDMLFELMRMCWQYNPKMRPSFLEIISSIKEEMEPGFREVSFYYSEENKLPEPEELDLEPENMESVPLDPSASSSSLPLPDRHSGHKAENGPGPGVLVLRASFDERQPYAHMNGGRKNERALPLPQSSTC
SMILES,IC50 (T Cell; T-cell) [nM],"IC50 ([1]; Mus musculus, 4T1) [nM]",IC50 ([2]; FAK IC50) [nM],IC50 (FAK) [nM],IC50 (IGF-IR) [nM],IC50 ([2]; read-out: FAK IC50) [nM],IC50 [1] [nM],IC50 (T Cell) [nM]
CNS(=O)(=O)c1ccccc1Nc1nc(Nc2ccc(N3CCCC(C(N)=O)C3)cc2OC)ncc1Br (stereo not shown) [Example 3-68],1000,630,5.5,–,–,–,–,–
CNS(=O)(=O)c1ccccc1Nc1nc(Nc2cc(OCCCN3CCOCC3)ccc2OC)ncc1Br [Example 3-73],–,290,–,30,1630,11,–,–
CNS(=O)(=O)c1ccccc1Nc1nc(Nc2ccc(F)cc2OC)ncc1Br [Example 3-80],–,450,–,220,5000,12,–,–
CNS(=O)(=O)c1ccccc1Nc1nc(Nc2cc(F)ccc2OC)ncc1Br [Example 3-81],–,980,–,520,> 10000,21,–,–
CNC(=O)c1ccccc1Nc1nc(Nc2ccc(N3CCC(N4CCCCC4)CC3)cc2OC)ncc1Cl [Example 7-1],–,540,–,600,190,4.7,–,–
CNC(=O)c1ccccc1Nc1nc(Nc2ccc(N3CCN(C)CC3)cc2OC)ncc1Cl [Example 7-3],–,390,–,300,270,2.9,–,–
CNC(=O)c1ccccc1Nc1nc(Nc2ccc(OC3CCN(C)CC3)cc2OC)ncc1Cl [Example 7-5],–,200,–,300,250,6.2,–,–
CNC(=O)c1ccccc1Nc1nc(Nc2ccc(N3CCC(N(C)C)C3)cc2OC)ncc1Cl (stereo not shown) [Example 7-11],–,1200,–,600,770,2.5,–,–
CNC(=O)c1ccccc1Nc1nc(Nc2ccc(N3CCC(N4CCN(C)CC4)CC3)cc2OC)ncc1Cl [Example 7-14],–,360,–,300,330,7.6,–,–
CNC(=O)c1ccccc1Nc1nc(Nc2cc(N3CCN(C(C)=O)CC3)ccc2OC)ncc1Cl [Example 7-30],1000,300,–,–,–,2.1,–,–
CNC(=O)c1ccccc1Nc1nc(Nc2cc(F)ccc2OC)ncc1Br [Example 8-3],–,1000,–,220,> 10000,13,–,–
CCNC(=O)c1ccccc1Nc1nc(Nc2ccc(N3CCOCC3)cc2OC)ncc1Cl [Example 9-5],–,–,–,360,600,22,1600,–
COc1cc(N2CCC(N3CCN(C)CC3)CC2)ccc1Nc1ncc(Cl)c(Nc2ccccc2S(=O)(=O)NC(C)C)n1 [Example 19-4],–,340,–,200,140,1.6,–,–
COc1cc(NCC(C)(C)CN(C)C)ccc1Nc1ncc(Cl)c(Nc2ccccc2S(=O)(=O)NC(C)C)n1 [Example 19-10],–,560,–,60,1020,1.3,–,–
CNC1CCN(c2ccc(Nc3ncc(Cl)c(Nc4ccccc4S(=O)(=O)NC(C)C)n3)c(OC)c2F)C1 (stereo not shown) [Example 19-12],–,700,–,> 10000,630,9,–,–
COc1cc(OC2CCN(C)C2)ccc1Nc1ncc(Cl)c(Nc2ccccc2S(=O)(=O)NC(C)C)n1 (stereo not shown) [Example 19-20],–,70,–,30,230,1.6,–,–
CC(C)NS(=O)(=O)c1ccccc1Nc1nc(Nc2ccc(N3CCOCC3)cc2F)ncc1Cl [Example 19-25],–,490,–,1000,240,7.2,–,–
CNS(=O)(=O)c1ccccc1Nc1nc(Nc2ccccc2OC(F)(F)F)ncc1Cl [Example 20-3],–,2500,–,400,2780,42,–,–
CNS(=O)(=O)c1ccccc1Nc1nc(Nc2ccc(N3CCNCC3)cc2OC)ncc1Cl [Example 20-7],–,50,–,100,380,3,–,–
CNS(=O)(=O)c1ccccc1Nc1nc(Nc2ccc(N3CCC(N4CCCCC4)CC3)cc2OC)ncc1Cl [Example 20-8],–,–,–,–,–,–,50,290
CNS(=O)(=O)c1ccccc1Nc1nc(Nc2ccc(OC3CCN(C)CC3)cc2OC)ncc1Cl [Example 20-27],–,50,–,850,290,12,–,–
CNS(=O)(=O)c1ccccc1Nc1nc(Nc2ccc(OC3CCN(C(C)C)C3)cc2OC)ncc1Cl (stereo not shown) [Example 20-28],–,80,–,170,420,9.2,–,–

SMILES,IC50 (T Cell; T-cell) [nM],"IC50 ([1]; Mus musculus, 4T1) [nM]",IC50 ([2]; FAK IC50) [nM],IC50 (FAK) [nM],IC50 (IGF-IR) [nM],IC50 ([2]; read-out: FAK IC50) [nM],IC50 [1] [nM],IC50 (T Cell) [nM]
CCN1CCC(Oc2ccc(Nc3ncc(Cl)c(Nc4ccccc4S(=O)(=O)NC)n3)c(OC)c2)C1 (stereo not shown) [Example 20-30],–,80,–,300,670,7.6,–,–
CNS(=O)(=O)c1ccccc1Nc1nc(Nc2cc(OC)c(OC)cc2C)ncc1Cl [Example 20-35],–,90,–,90,150,8.7,–,–
COc1cc(N2CCOCC2)ccc1Nc1ncc(Cl)c(Nc2ccccc2S(=O)(=O)NCC(C)C)n1 [Example 22-3],–,150,–,90,260,6.6,–,–
CCC(CC)NS(=O)(=O)c1ccccc1Nc1nc(Nc2ccc(N3CCN(C)CC3)cc2OC)ncc1Cl [Example 23-2],–,400,–,200,800,1.5,–,–
CCC(CC)NS(=O)(=O)c1ccccc1Nc1nc(Nc2ccc(N3CCC(NC)C3)cc2OC)ncc1Cl (stereo not shown) [Example 23-3],–,1120,–,1000,820,1.7,–,–
CCNC1CCN(c2ccc(Nc3ncc(Cl)c(Nc4ccccc4S(=O)(=O)NC(CC)CC)n3)c(OC)c2)C1 (stereo not shown) [Example 23-4],–,1070,–,900,600,1.2,–,–
COc1cc(N2CCOCC2)ccc1Nc1ncc(Cl)c(Nc2ccccc2S(=O)(=O)NC2CCC2)n1 [Example 24-1],–,440,–,110,50,3.6,–,–
COc1cc(OC2CCN(C)CC2)ccc1Nc1ncc(Cl)c(Nc2ccccc2S(=O)(=O)NC2CCC2)n1 [Example 24-2],–,110,–,500,390,2.1,–,–
COc1cc(OC2CCN(C)CC2)ccc1Nc1ncc(Cl)c(Nc2ccccc2S(=O)(=O)NC2CCCC2)n1 [Example 25-2],–,130,–,400,640,3,–,–
CCCS(=O)(=O)c1ccccc1Nc1nc(Nc2ccc(N3CCOCC3)cc2OC)ncc1Cl [Example 26-1],–,350,–,50,290,4.4,–,–
CCCS(=O)(=O)c1ccccc1Nc1nc(Nc2cc(N3CCN(C(C)=O)CC3)ccc2OC)ncc1Cl [Example 26-15],–,80,–,1200,70,6.9,–,–
CCCS(=O)(=O)c1ccccc1Nc1nc(Nc2ccc(N3CCN(C(C)C)CC3)cc2OC)ncc1Cl [Example 26-23],–,90,–,300,180,1.4,–,–
CCCS(=O)(=O)c1ccccc1Nc1nc(Nc2ccc(OC3CCN(C)CC3)cc2OC)ncc1Cl [Example 26-26],–,70,–,200,340,1.9,–,–
COc1cc(N2CCCC(C(N)=O)C2)ccc1Nc1ncc(Cl)c(Nc2ccccc2S(=O)(=O)C(C)C)n1 (stereo not shown) [Example 28-1],–,460,–,300,300,12,–,–
COc1cc(N2CCN(CCO)CC2)ccc1Nc1ncc(Cl)c(Nc2ccccc2S(=O)(=O)C(C)C)n1 [Example 28-2],–,440,–,80,3710,1.9,–,–
COc1cc(N2CCN(C3CCN(C)CC3)CC2)ccc1Nc1ncc(Cl)c(Nc2ccccc2S(=O)(=O)C(C)C)n1 [Example 28-24],–,90,–,200,2570,2.9,–,–
CCC(CC)S(=O)(=O)c1ccccc1Nc1nc(Nc2ccc(N3CCOCC3)cc2OC)ncc1Cl [Example 29-1],–,2200,–,700,90,13,–,–
COc1cc(N2CCOCC2)ccc1Nc1ncc(Cl)c(Nc2ccccc2S(=O)(=O)CC(C)C)n1 [Example 32-2],–,370,–,50,120,5.9,–,–
COc1cc(N2CCOCC2)ccc1Nc1ncc(Cl)c(Nc2ccccc2S(=O)(=O)C2CCCC2)n1 [Example 33-2],–,250,–,60,100,5.2,–,–
CCCCS(=O)(=O)c1ccccc1Nc1nc(Nc2ccc(N3CCOCC3)cc2OC)ncc1Cl [Example 34-1],–,370,–,100,280,8,–,–
"COc1cc(N2CCOCC2)ccc1Nc1ncc(Br)c(Nc2ccccc2S(=O)(=O)N(C)C)n1 [Example 51, 2-[5-bromo-2-(2-methoxy-4-morpholin-4-yl-phenylamino)-pyrimidin-7-ylamino]-N,N-dimethyl-benznensulfonamide]",–,190,–,13,200,8.1,–,–
"CNS(=O)(=O)c1cc(F)ccc1Nc1nc(Nc2ccc(N3CCOCC3)cc2OC)ncc1Br [Example 52, 2-[5-Bromo-2-(2-methoxy-4-morpholin-4-yl-phenylamino)-pyrimidin-4-ylamino]-5-fluoro-N-methyl-benzenesulfonamide]",–,410,–,200,< 80,13,–,–
